Results from patent publication US10081624B2, “Heterocyclic compound” (Takeda Pharmaceutical Company Limited, priority 2014, dated 2018).

How the values were obtained:
HDAC1 enzyme = biological target: T1, HDAC1 enzyme (Homo sapiens, UniProt Q13547); test: HDAC1 enzyme inhibitory assay (HDAC-Glo I/II Assay kit); type: biochemical; conditions: 1 μM test compound; for inhibition at 1 µM: read-out: HDAC1 inhibitory rate (%) (1 μM)
T1 construct: prepared by transducing full length HDAC1 and HDAC6 genes into Sf-9 insect cells; GST; purchased SignalChem; host or cells: Sf-9 insect cells
Method: HDAC1 enzyme and HDAC6 enzyme each prepared by transducing full length HDAC1 and HDAC6 genes into Sf-9 insect cells and purifying by GST affinity column were purchased from SignalChem. Using these enzymes, HDAC1 and/or HDAC6 enzyme inhibitory activities of the compound of the present invention were evaluated. Enzymes were used after preserved at −70° C. HDAC1 or HDAC6 enzyme inhibitory activity of the compound of the present invention was measured using HDAC-Glo™ I/II Assay kit (Promega) according to the following experimental method. The test compound diluted with assay buffer (24 mM Tris-HCl (pH 7.5), 1 mM MgCl2, 0.35 mM KCl, 135 mM NaCl, 0.6 mM Glutathione, 0.01% Tween-20) was added to a 384-well plate by each 2 μL. Then, HDAC1 or HDAC6 enzyme solution diluted with assay buffer was added thereto by each 4 μL, and the plate was incubated at room temperature for 60 min. After incubated, HDAC substrate-Developer solution prepared according to Promega protocol attached to the assay kit was added to the 384-well plate by each 2 μL, and the enzyme reaction was started. After reacting at room temperature for 20 min, luminescence level was measured using plate reader Envision (PerkinElmer). The inhibitory activity of each compound was calculated as a relative activity value when luminescence level in wells without enzyme is considered as 100% inhibition.

HDAC6 enzyme = biological target: T2, HDAC6 enzyme (Homo sapiens, UniProt Q9UBN7); test: HDAC6 enzyme inhibitory assay (HDAC-Glo I/II Assay kit); type: biochemical; conditions: 1 μM test compound; for inhibition at 1 µM: read-out: HDAC6 inhibitory rate (%) (1 μM)
T2 construct: prepared by transducing full length HDAC1 and HDAC6 genes into Sf-9 insect cells; GST; purchased SignalChem; host or cells: Sf-9 insect cells
T2 sequence (Q9UBN7 1-1215): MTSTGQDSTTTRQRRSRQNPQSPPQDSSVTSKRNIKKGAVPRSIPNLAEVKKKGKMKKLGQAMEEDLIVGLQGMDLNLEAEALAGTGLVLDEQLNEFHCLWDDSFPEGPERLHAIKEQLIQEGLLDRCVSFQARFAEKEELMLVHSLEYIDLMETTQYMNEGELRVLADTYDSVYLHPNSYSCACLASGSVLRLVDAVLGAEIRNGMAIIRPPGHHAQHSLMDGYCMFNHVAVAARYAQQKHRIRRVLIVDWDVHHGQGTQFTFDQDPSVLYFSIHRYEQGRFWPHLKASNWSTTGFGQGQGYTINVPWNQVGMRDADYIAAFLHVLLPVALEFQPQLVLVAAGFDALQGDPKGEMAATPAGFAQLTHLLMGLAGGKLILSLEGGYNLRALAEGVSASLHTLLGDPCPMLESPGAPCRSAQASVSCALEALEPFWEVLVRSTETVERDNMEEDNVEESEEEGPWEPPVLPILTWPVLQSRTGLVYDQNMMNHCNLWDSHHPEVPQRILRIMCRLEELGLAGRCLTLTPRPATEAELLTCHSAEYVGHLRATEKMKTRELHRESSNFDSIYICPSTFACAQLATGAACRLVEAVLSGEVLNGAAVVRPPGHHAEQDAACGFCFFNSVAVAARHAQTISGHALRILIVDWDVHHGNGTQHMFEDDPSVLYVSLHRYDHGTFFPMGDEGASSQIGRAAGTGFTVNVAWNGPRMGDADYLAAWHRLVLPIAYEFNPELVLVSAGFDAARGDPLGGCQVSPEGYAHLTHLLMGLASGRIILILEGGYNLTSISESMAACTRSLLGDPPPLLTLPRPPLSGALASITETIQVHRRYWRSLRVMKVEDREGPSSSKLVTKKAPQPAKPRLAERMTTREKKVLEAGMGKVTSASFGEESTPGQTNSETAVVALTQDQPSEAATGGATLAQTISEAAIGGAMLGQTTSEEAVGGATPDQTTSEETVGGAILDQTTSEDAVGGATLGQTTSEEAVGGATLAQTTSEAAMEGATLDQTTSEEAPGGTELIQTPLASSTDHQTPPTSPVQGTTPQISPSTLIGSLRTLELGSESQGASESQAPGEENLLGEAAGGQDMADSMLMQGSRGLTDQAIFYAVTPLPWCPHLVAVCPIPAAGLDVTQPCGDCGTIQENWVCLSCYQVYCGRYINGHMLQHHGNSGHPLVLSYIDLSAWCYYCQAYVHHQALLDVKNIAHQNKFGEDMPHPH
Outline: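 Full-length GST-purified HDAC1 or HDAC6 (Sf-9 expressed) preincubated 60 min at room temperature with compound in Tris-HCl pH 7.5 buffer with glutathione and Tween-20. HDAC-Glo substrate-developer added, 20 min at room temperature, then luminescence read; inhibition relative to no-enzyme wells as 100%.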

T1 sequence (Q13547 whole entry): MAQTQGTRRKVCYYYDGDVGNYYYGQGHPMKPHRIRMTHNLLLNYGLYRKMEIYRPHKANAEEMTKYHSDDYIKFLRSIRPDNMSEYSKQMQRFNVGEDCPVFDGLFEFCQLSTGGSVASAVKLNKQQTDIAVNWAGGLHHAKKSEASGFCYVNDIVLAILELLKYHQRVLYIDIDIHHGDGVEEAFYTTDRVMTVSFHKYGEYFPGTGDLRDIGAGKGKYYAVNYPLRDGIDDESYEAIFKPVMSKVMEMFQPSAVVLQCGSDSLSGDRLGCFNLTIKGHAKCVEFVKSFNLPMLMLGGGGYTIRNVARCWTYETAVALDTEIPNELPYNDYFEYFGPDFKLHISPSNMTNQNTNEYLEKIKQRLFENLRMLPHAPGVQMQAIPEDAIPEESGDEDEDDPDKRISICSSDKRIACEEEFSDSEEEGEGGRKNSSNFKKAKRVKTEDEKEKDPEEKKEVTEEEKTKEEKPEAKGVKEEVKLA

| SMILES | inhibition at 1 µM (HDAC1 enzyme) | inhibition at 1 µM (HDAC6 enzyme) | HDAC1 inhibitory rate (%) (1 μM) (HDAC1 enzyme) | HDAC6 inhibitory rate (%) (1 μM) (HDAC6 enzyme; 1 µM) |
| --- | --- | --- | --- | --- |
| Cn1nc(C(F)(F)F)cc1C(=O)N1CCOC[C@@H]1CNC(=O)c1ccc(-c2noc(C(F)(F)F)n2)cc1 [Example 64, N-(((3S)-4-((1-methyl-3-(trifluoromethyl)-1H-pyrazol-5-yl)carbonyl)morpholin-3-yl)methyl)-4-(5-(trifluoromethyl)-1,2,4-oxadiazol-3-yl)benzamide] | 17% | 93% |  |  |
| O=C(NC[C@H]1COCCN1C(=O)c1cc(F)c(F)c(F)c1)c1ccc(-c2noc(C(F)(F)F)n2)cc1 [Example 47, N-(((3S)-4-(3,4,5-trifluorobenzoyl)morpholin-3-yl)methyl)-4-(5-(trifluoromethyl)-1,2,4-oxadiazol-3-yl)benzamide] |  |  | 11% | 102% |
| O=C(NC[C@H]1COCCN1C(=O)N1CCC[C@@H]1CO)c1ccc(-c2noc(C(F)(F)F)n2)cc1 [Example 108, N-(((3S)-4-(((2R)-2-(hydroxymethyl)pyrrolidin-1-yl)carbonyl)morpholin-3-yl)methyl)-4-(5-(trifluoromethyl)-1,2,4-oxadiazol-3-yl)benzamide] | 2% | 100% |  |  |
| O=C(NCC1COCCN1C(=O)c1ccc(Cl)cc1)c1ccc(-c2noc(C(F)(F)F)n2)cc1 (stereo not shown) [Example 8] | 33% | 97% |  |  |
| O=C(NCC1COCCN1C(=O)c1cccs1)c1ccc(-c2noc(C(F)(F)F)n2)cc1 (stereo not shown) [Example 15, N-((4-(2-thienylcarbonyl)morpholin-3-yl)methyl)-4-(5-(trifluoromethyl)-1,2,4-oxadiazol-3-yl)benzamide] | 20% | 98% |  |  |

Results, then the compound that gave them:

| inhibition at 1 µM (HDAC1 enzyme) | inhibition at 1 µM (HDAC6 enzyme) | HDAC1 inhibitory rate (%) (1 μM) (HDAC1 enzyme) | HDAC6 inhibitory rate (%) (1 μM) (HDAC6 enzyme; 1 µM) | SMILES |
| --- | --- | --- | --- | --- |
| 10% | 90% |  |  | O=C(NC[C@H]1COCCN1C(=O)N1CCC(CCO)CC1)c1ccc(-c2noc(C(F)(F)F)n2)cc1 [Example 279, N-(((3S)-4-((4-(2-hydroxyethyl)piperidin-1-yl)carbonyl)morpholin-3-yl)methyl)-4-(5-(trifluoromethyl)-1,2,4-oxadiazol-3-yl)benzamide] |
| 4% | 85% |  |  | C[C@@H]1CCCN1C(=O)N1CCOC[C@@H]1CNC(=O)c1ccc(-c2noc(C(F)(F)F)n2)cc1 [Example 289, N-(((3S)-4-(((2R)-2-methylpyrrolidin-1-yl)carbonyl)morpholin-3-yl)methyl)-4-(5-(trifluoromethyl)-1,2,4-oxadiazol-3-yl)benzamide] |
| 7% | 93% |  |  | O=C(NC[C@H]1COCCN1C(=O)N1CCCC2(COC2)C1)c1ccc(-c2noc(C(F)(F)F)n2)cc1 [Example 281, N-(((3S)-4-(2-oxa-6-azaspiro[3.5]non-6-ylcarbonyl)morpholin-3-yl)methyl)-4-(5-(trifluoromethyl)-1,2,4-oxadiazol-3-yl)benzamide] |
| 33% | 98% |  |  | CC(C)(C(=O)N1CCOC[C@@H]1CNC(=O)c1ccc(-c2noc(C(F)(F)F)n2)cn1)c1ccccc1 [Example 206, N-(((3S)-4-(2-methyl-2-phenylpropanoyl)morpholin-3-yl)methyl)-5-(5-(trifluoromethyl)-1,2,4-oxadiazol-3-yl)pyridine-2-carboxamide] |
| 15% | 96% |  |  | O=C(NCC1COCCN1C(=O)c1cc(Cl)cc(Cl)c1)c1ccc(-c2noc(C(F)(F)F)n2)s1 (stereo not shown) [Example 211, N-((4-(3,5-dichlorobenzoyl)morpholin-3-yl)methyl)-5-(5-(trifluoromethyl)-1,2,4-oxadiazol-3-yl)thiophene-2-carboxamide] |
| 4% | 90% |  |  | O=C(NC[C@H]1COCCN1C(=O)N1CCC(CCO)C1)c1ccc(-c2noc(C(F)(F)F)n2)cc1 (stereo partly drawn) [Example 300, N-(((3S)-4-((3-(2-hydroxyethyl)pyrrolidin-1-yl)carbonyl)morpholin-3-yl)methyl)-4-(5-(trifluoromethyl)-1,2,4-oxadiazol-3-yl)benzamide] |
